Data taken from PubChem BioAssay AID2060505 (Molecular Pharmacology Branch, DTP, NCI, 2025).

System: 633275-114-R-J1-PDC complex spheroids, viability
Assay: Anticancer human tumor 633275-114-R-J1-PDC patient-derived endometrial adenocarcinoma cell line growth inhibition [GQUAD]
Conditions: for IC50: curve of first compound; for viability, T/C: stronger effect = lower value
Outline: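 Multi-cell-type spheroids of tumor cells with HUVEC and mesenchymal stem cells, treated with drug combinations. Concentrations descend in half-log steps from near clinical Cmax, or from 10 microM where Cmax is unknown; viability read-out.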

[1] = second compound 0.0316 µM, first compound 0.0316 µM
[2] = second compound 0.0316 µM, first compound 0.1 µM
[3] = second compound 0.0316 µM, first compound 0.316 µM
[4] = second compound 0.0316 µM, first compound 1 µM
[5] = second compound 0.0316 µM, first compound 3.16 µM
[6] = second compound 0.0316 µM, first compound 10 µM
[7] = second compound 0.1 µM, first compound 0.0316 µM
[8] = second compound 0.1 µM, first compound 0.1 µM
[9] = second compound 0.1 µM, first compound 0.316 µM
[10] = second compound 0.1 µM, first compound 1 µM
[11] = second compound 0.1 µM, first compound 3.16 µM
[12] = second compound 0.1 µM, first compound 10 µM
[13] = second compound 0.316 µM, first compound 0.0316 µM
[14] = second compound 0.316 µM, first compound 0.1 µM
[15] = second compound 0.316 µM, first compound 0.316 µM
[16] = second compound 0.316 µM, first compound 1 µM
[17] = second compound 0.316 µM, first compound 3.16 µM
[18] = second compound 0.316 µM, first compound 10 µM
[19] = second compound 1 µM, first compound 0.0316 µM
[20] = second compound 1 µM, first compound 0.1 µM
[21] = second compound 1 µM, first compound 0.316 µM
[22] = second compound 1 µM, first compound 1 µM
[23] = second compound 1 µM, first compound 3.16 µM
[24] = second compound 1 µM, first compound 10 µM
[25] = second compound 3.16 µM, first compound 0.0316 µM
[26] = second compound 3.16 µM, first compound 0.1 µM
[27] = second compound 3.16 µM, first compound 0.316 µM
[28] = second compound 3.16 µM, first compound 1 µM
[29] = second compound 3.16 µM, first compound 3.16 µM
[30] = second compound 3.16 µM, first compound 10 µM
[31] = second compound 10 µM, first compound 0.0316 µM
[32] = second compound 10 µM, first compound 0.1 µM
[33] = second compound 10 µM, first compound 0.316 µM
[34] = second compound 10 µM, first compound 1 µM
[35] = second compound 10 µM, first compound 3.16 µM
[36] = second compound 10 µM, first compound 10 µM
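Also: spheroids exposed to the agents for seven days.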
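For viability, T/C in this document: percent of DMSO vehicle control viability which is 100%.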

`C=CC(=O)N1CCN(c2nc(=O)n(-c3c(C)ccnc3C(C)C)c3nc(-c4c(O)cccc4F)c(F)cc23)C(C)C1` (stereo unspecified) + Cc1cnc(CNC(=O)c2c(=O)c3ccc(N4CCCN(C)CC4)nc3n3c2sc2ccccc23)cn1 showed an IC50 (second compound 0.0316 µM) greater than 10000 nM, an IC50 (second compound 0.1 µM) greater than 10000 nM and an IC50 (second compound 0.316 µM) of less than 31.6 nM. The IC50 (second compound 1 µM) was less than 31.6 nM, the IC50 (second compound 3.16 µM) was less than 31.6 nM and the IC50 (second compound 10 µM) was less than 31.6 nM. The viability, T/C [1] was 67.1%, the viability, T/C [2] was 62.3% and the viability, T/C [3] was 78.3%. For the same compound, the viability, T/C [4] was 69%, the viability, T/C [5] was 65.4% and the viability, T/C [6] was 68.1%. The viability, T/C [7] was 57.4%, the viability, T/C [8] was 57.8% and the viability, T/C [9] was 55.4%. It also gave a viability, T/C [10] of 57%, a viability, T/C [11] of 59.8% and a viability, T/C [12] of 51.6%. The viability, T/C [13] was 46.8%, the viability, T/C [14] was 44.9% and the viability, T/C [15] was 47.6%. It also gave a viability, T/C [16] of 53.5%, a viability, T/C [17] of 54.1% and a viability, T/C [18] of 46.8%. It also gave a viability, T/C [19] of 41.6%, a viability, T/C [20] of 48.2% and a viability, T/C [21] of 45.7%. For the same compound, the viability, T/C [22] was 42.9%, the viability, T/C [23] was 47.7% and the viability, T/C [24] was 41%. For the same compound, the viability, T/C [25] was 37.3%, the viability, T/C [26] was 36.5% and the viability, T/C [27] was 39.4%. For the same compound, the viability, T/C [28] was 42.6%, the viability, T/C [29] was 42.4% and the viability, T/C [30] was 37.6%. It also gave a viability, T/C [31] of 32.3%, a viability, T/C [32] of 34.1% and a viability, T/C [33] of 34%. The viability, T/C [34] was 35.9%, the viability, T/C [35] was 39.7% and the viability, T/C [36] was 30.2%.

For `CCc1c2c(nc3ccc(O)cc13)-c1cc3c(c(=O)n1C2)COC(=O)[C@]3(O)CC` + Cc1cnc(CNC(=O)c2c(=O)c3ccc(N4CCCN(C)CC4)nc3n3c2sc2ccccc23)cn1, the IC50 (second compound 0.0316 µM) was 1.6 nM, the IC50 (second compound 0.1 µM) was less than 0.999 nM and the IC50 (second compound 0.316 µM) was less than 0.999 nM. It also gave an IC50 (second compound 1 µM) of less than 0.999 nM, an IC50 (second compound 3.16 µM) of less than 0.999 nM and an IC50 (second compound 10 µM) of less than 0.999 nM. It also gave a viability, T/C (second compound 0.0316 µM, first compound 0.000999 µM) of 57.4%, a viability, T/C (second compound 0.0316 µM, first compound 0.00316 µM) of 38.5% and a viability, T/C (second compound 0.0316 µM, first compound 0.00999 µM) of 32.5%. The viability, T/C [1] was 32.5%, the viability, T/C (second compound 0.0316 µM, first compound 0.0999 µM) was 26.6% and the viability, T/C [3] was 24.4%. The viability, T/C (second compound 0.1 µM, first compound 0.000999 µM) was 46.3%, the viability, T/C (second compound 0.1 µM, first compound 0.00316 µM) was 36.2% and the viability, T/C (second compound 0.1 µM, first compound 0.00999 µM) was 35.4%. The viability, T/C [7] was 32.4%, the viability, T/C (second compound 0.1 µM, first compound 0.0999 µM) was 27.2% and the viability, T/C [9] was 25.2%. The viability, T/C (second compound 0.316 µM, first compound 0.000999 µM) was 42.9%, the viability, T/C (second compound 0.316 µM, first compound 0.00316 µM) was 37.9% and the viability, T/C (second compound 0.316 µM, first compound 0.00999 µM) was 33.9%. For the same compound, the viability, T/C [13] was 31.2%, the viability, T/C (second compound 0.316 µM, first compound 0.0999 µM) was 30% and the viability, T/C [15] was 26.8%. It also gave a viability, T/C (second compound 1 µM, first compound 0.000999 µM) of 40.4%, a viability, T/C (second compound 1 µM, first compound 0.00316 µM) of 35.3% and a viability, T/C (second compound 1 µM, first compound 0.00999 µM) of 35.9%. For the same compound, the viability, T/C [19] was 30.2%, the viability, T/C (second compound 1 µM, first compound 0.0999 µM) was 27.8% and the viability, T/C [21] was 18.7%. It also gave a viability, T/C (second compound 3.16 µM, first compound 0.000999 µM) of 34%, a viability, T/C (second compound 3.16 µM, first compound 0.00316 µM) of 31.9% and a viability, T/C (second compound 3.16 µM, first compound 0.00999 µM) of 28.3%. The viability, T/C [25] was 27%, the viability, T/C (second compound 3.16 µM, first compound 0.0999 µM) was 24.9% and the viability, T/C [27] was 13.4%. The viability, T/C (second compound 10 µM, first compound 0.000999 µM) was 30.3%, the viability, T/C (second compound 10 µM, first compound 0.00316 µM) was 28% and the viability, T/C (second compound 10 µM, first compound 0.00999 µM) was 26.4%. The viability, T/C [31] was 27.8%, the viability, T/C (second compound 10 µM, first compound 0.0999 µM) was 21.1% and the viability, T/C [33] was 0.26%.

`COc1cc(C2c3cc4c(cc3C(OC3OC5COC(C)OC5C(O)C3O)C3COC(=O)C23)OCO4)cc(OC)c1O` (stereo unspecified) + Cc1cnc(CNC(=O)c2c(=O)c3ccc(N4CCCN(C)CC4)nc3n3c2sc2ccccc23)cn1 showed an IC50 (second compound 0.0316 µM) of 185 nM, an IC50 (second compound 0.1 µM) of 86.6 nM and an IC50 (second compound 0.316 µM) of less than 31.6 nM. It also gave an IC50 (second compound 1 µM) of less than 31.6 nM, an IC50 (second compound 3.16 µM) of less than 31.6 nM and an IC50 (second compound 10 µM) of less than 31.6 nM. For the same compound, the viability, T/C [1] was 53.3%, the viability, T/C [2] was 55.2% and the viability, T/C [3] was 47.4%. For the same compound, the viability, T/C [4] was 41.3%, the viability, T/C [5] was 36.6% and the viability, T/C [6] was 27.8%. For the same compound, the viability, T/C [7] was 54.4%, the viability, T/C [8] was 45.2% and the viability, T/C [9] was 50.1%. For the same compound, the viability, T/C [10] was 40%, the viability, T/C [11] was 31.8% and the viability, T/C [12] was 29.4%. It also gave a viability, T/C [13] of 43.4%, a viability, T/C [14] of 45.8% and a viability, T/C [15] of 43.6%. It also gave a viability, T/C [16] of 41.4%, a viability, T/C [17] of 31.9% and a viability, T/C [18] of 28.1%. For the same compound, the viability, T/C [19] was 40.9%, the viability, T/C [20] was 41% and the viability, T/C [21] was 43.5%. For the same compound, the viability, T/C [22] was 41%, the viability, T/C [23] was 34.1% and the viability, T/C [24] was 28.4%. It also gave a viability, T/C [25] of 31.7%, a viability, T/C [26] of 32.9% and a viability, T/C [27] of 35.9%. The viability, T/C [28] was 32.7%, the viability, T/C [29] was 34.2% and the viability, T/C [30] was 25.5%. The viability, T/C [31] was 28.2%, the viability, T/C [32] was 31.4% and the viability, T/C [33] was 28.7%. The viability, T/C [34] was 32.9%, the viability, T/C [35] was 27.2% and the viability, T/C [36] was 20.9%.
